As a reminder, the IC50 is the point on the concentration scale where inhibition reaches its midpoint.

Activity calls are given as the source filed them. The rule behind the calls is not given here.

Test [1] addresses T1, P2X purinoceptor 7 (Rattus norvegicus, UniProt Q64663).
T1 sequence (Q64663 whole entry): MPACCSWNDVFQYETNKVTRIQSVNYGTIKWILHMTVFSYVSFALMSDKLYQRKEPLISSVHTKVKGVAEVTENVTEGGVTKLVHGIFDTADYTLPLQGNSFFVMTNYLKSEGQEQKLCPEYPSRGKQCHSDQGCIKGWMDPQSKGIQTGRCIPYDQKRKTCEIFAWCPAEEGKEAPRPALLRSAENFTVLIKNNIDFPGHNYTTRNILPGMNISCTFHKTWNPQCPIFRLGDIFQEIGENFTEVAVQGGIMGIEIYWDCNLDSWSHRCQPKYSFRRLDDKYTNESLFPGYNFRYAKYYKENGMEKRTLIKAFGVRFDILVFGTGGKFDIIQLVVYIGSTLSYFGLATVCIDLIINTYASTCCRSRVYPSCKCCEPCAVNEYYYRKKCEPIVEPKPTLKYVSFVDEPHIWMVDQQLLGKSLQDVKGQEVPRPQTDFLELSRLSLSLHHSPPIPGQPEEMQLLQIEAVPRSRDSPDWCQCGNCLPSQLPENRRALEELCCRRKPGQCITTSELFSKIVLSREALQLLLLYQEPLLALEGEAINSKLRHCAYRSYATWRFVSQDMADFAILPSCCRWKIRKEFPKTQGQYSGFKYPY
Briefly: Antagonist activity at rat recombinant P2X7 receptor assessed as inhibition of calcium flux by FLIPR assay. The test is classed as functional. (Calcium assays in cells follow changes in intracellular calcium, usually with a dye or a luminescent sensor.)

The target in test [2] is T2, P2X purinoceptor 7 (Homo sapiens, UniProt Q99572).
T2 sequence (Q99572 whole entry): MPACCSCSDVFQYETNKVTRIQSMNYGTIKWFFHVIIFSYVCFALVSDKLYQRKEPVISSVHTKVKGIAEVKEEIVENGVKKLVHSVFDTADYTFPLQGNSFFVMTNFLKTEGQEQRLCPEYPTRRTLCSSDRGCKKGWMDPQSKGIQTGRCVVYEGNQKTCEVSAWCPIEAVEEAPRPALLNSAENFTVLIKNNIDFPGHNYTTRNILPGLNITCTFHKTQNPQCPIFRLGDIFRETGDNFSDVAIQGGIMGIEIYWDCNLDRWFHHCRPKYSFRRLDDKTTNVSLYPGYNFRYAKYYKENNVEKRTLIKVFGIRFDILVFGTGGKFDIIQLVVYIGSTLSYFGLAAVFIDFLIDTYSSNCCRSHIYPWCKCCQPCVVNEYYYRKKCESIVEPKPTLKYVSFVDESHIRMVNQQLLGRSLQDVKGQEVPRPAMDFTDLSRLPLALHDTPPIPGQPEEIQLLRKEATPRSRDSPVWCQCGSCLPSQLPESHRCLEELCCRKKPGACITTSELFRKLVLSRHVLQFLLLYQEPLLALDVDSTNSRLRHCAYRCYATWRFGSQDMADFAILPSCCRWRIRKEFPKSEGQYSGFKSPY
Briefly: Antagonist activity at human recombinant P2X7 receptor assessed as inhibition of calcium flux by FLIPR assay. The test is classed as functional.

A short description of test [3]: Inhibition of P2X2/3 receptor at 10 uM.
Test [4] has as its target T3, P2X purinoceptor 3 (Homo sapiens) (UniProt P56373).
T3 sequence (whole entry): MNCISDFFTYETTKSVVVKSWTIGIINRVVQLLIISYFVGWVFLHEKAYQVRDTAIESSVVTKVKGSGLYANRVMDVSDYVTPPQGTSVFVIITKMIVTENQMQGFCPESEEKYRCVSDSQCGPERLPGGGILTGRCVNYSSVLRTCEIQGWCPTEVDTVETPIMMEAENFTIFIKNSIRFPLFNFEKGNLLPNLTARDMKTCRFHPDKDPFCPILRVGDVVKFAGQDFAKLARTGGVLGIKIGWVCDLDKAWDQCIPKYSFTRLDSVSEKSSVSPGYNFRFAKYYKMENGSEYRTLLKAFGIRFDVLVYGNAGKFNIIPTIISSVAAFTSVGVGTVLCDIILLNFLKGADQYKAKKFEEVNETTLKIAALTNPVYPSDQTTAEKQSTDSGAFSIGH
The experiment in a line: Inhibition of P2X3 receptor at 10 uM.

Test [5] concerns the target T4, P2X purinoceptor 4 (Homo sapiens) (UniProt Q99571).
T4 sequence (whole entry): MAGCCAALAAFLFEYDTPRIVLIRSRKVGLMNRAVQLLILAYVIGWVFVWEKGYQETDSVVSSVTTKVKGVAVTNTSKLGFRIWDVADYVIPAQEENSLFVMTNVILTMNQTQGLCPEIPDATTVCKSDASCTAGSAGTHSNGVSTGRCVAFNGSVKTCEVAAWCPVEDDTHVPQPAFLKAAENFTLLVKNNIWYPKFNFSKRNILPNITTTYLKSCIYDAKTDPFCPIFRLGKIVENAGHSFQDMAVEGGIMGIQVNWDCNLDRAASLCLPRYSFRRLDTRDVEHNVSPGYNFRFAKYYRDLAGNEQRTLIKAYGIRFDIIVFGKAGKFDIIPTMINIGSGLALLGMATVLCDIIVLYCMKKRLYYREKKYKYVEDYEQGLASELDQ
Briefly: Inhibition of P2X4 receptor at 10 uM.

The target in test [6] is P2Y purinoceptor 2 (Homo sapiens) (UniProt P41231). Briefly: Inhibition of P2Y2 receptor at 10 uM.
Sequence of P2Y purinoceptor 2 (Homo sapiens) (P41231 whole entry): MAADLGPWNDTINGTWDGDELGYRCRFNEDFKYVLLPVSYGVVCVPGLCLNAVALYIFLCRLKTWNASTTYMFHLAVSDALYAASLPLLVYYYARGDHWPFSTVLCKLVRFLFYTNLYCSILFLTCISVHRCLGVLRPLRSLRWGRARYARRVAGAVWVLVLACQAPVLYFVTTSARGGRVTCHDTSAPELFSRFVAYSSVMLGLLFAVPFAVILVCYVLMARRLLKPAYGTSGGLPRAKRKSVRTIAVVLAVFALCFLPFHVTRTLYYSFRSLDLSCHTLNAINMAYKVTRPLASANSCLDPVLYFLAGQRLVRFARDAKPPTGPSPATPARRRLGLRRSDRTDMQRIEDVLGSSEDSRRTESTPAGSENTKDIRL

As for `COc1ccc(CC(=O)N2CCN(C(=Nc3ccccc3C)NC#N)[C@H](CC(C)C)C2)cc1OC`, the IC50 on P2X purinoceptor 7 [1] worked out at 4500 nM; at P2X purinoceptor 7 [2], 430 nM.

Regarding `Cc1ccccc1N/C(=N\C#N)N1CCN(C(=O)CC23CC4CC(CC(C4)C2)C3)C(c2ccccc2)C1` (stereo unspecified), the IC50 at P2X purinoceptor 7 [1] amounted to 630 nM; at P2X purinoceptor 7 [2] it was 1500 nM.

As to `COc1ccc(C(=O)N2CCN(C(=Nc3ccccc3C)NC#N)CC2c2ccccc2)cc1OC` (stereo unspecified), the IC50 at P2X purinoceptor 7 [1] turned out to be 290 nM; at P2X purinoceptor 7 [2], 94 nM.

Consider `Cc1ccccc1N/C(=N\C#N)N1CCN(C(=O)Cc2c[nH]c3ccccc23)C(c2ccccc2)C1` (stereo unspecified), for which the IC50 on P2X purinoceptor 7 [1] stood at 210 nM; at P2X purinoceptor 7 [2] it was 100 nM.

For the compound `COc1ccc(CCC(=O)N2CCN(/C(=N/C#N)Nc3ccccc3C)CC2c2ccccc2)cc1OC` (stereo unspecified), the IC50 at P2X purinoceptor 7 [1] worked out at 76 nM; at P2X purinoceptor 7 [2], 57 nM.

For the compound `Cc1cc(CC(=O)N2CCN(C(=Nc3ccccc3C)NC#N)CC2c2ccccc2)on1` (stereo unspecified), the figures for the IC50 on P2X purinoceptor 7 [1] and on P2X purinoceptor 7 [2] were 170 nM and 46 nM, respectively.

In the case of `Cc1cc(CC(=O)N2CCN(/C(=N/C#N)Nc3ccccc3C)CC2c2ccccc2)no1` (stereo unspecified), the IC50 was determined as 610 nM at P2X purinoceptor 7 [1] and 410 nM on P2X purinoceptor 7 [2].

For the compound `COc1ccc(C(=O)N2CCN(/C(=N/C#N)Nc3cccc4ncccc34)CC2c2ccccc2)cc1OC` (stereo unspecified), the outcome in test [3], in test [4], in test [5] and in test [6] was inactive.

`Cc1ccccc1N/C(=N\C#N)N1CCN(C(=O)Cc2cccs2)C(c2ccccc2)C1` (stereo unspecified): the IC50 amounted to 150 nM at P2X purinoceptor 7 [1] and 46 nM on P2X purinoceptor 7 [2].

On to `COc1ccc(CC(=O)NC(N/C(=N/C#N)Nc2cccc3ncccc23)C(C)(C)C)cc1OC` (stereo unspecified), for which the IC50 at P2X purinoceptor 7 [2] is 44 nM.

For the compound `Cc1ccccc1N/C(=N\C#N)N1CCN(C(=O)Cc2c[nH]cn2)C(c2ccccc2)C1` (stereo unspecified), the IC50 came to 14000 nM at P2X purinoceptor 7 [1] and 1000 nM on P2X purinoceptor 7 [2].

With `COc1ccc(CC(=O)N2C(C)CN(C(=Nc3ccccc3C)NC#N)CC2C)cc1OC` (cis isomer), the figures for the half-maximal inhibitory concentration (IC50) on P2X purinoceptor 7 [1] and at P2X purinoceptor 7 [2] were 19000 nM and 460 nM, respectively.

With `COc1ccc(CCCC(=O)N2CCN(/C(=N/C#N)Nc3ccccc3C)CC2c2ccccc2)cc1OC` (stereo unspecified), the IC50 on P2X purinoceptor 7 [1] stood at 95 nM; at P2X purinoceptor 7 [2] it was 70 nM.

As to `Cc1ccccc1N/C(=N\C#N)N1CCN(C(=O)Cc2ccc3ccccc3c2)C(c2ccccc2)C1` (stereo unspecified), the IC50 worked out at 140 nM at P2X purinoceptor 7 [1] and 310 nM on P2X purinoceptor 7 [2].

Turning to `Cc1ccccc1N=C(NC#N)N1CCN(C(=O)Cc2ccc(Cl)cc2)C(c2ccccc2)C1` (stereo unspecified), the IC50 turned out to be 110 nM at P2X purinoceptor 7 [1] and 140 nM at P2X purinoceptor 7 [2].

In the case of `Cc1ccccc1N=C(NC#N)N1CCN(C(=O)Cc2ccco2)C(c2ccccc2)C1` (stereo unspecified), the IC50 was 520 nM on P2X purinoceptor 7 [1] and 110 nM at P2X purinoceptor 7 [2].

Turning to `COc1ccc(CC(=O)N2CCN(C(=Nc3ccccc3C)NC#N)CC2c2ccccc2)cc1OC` (stereo in doubt; 26), the IC50 at P2X purinoceptor 7 [1] is 140 nM; on P2X purinoceptor 7 [2] it was 58 nM.

On to `Cc1ccccc1N=C(NC#N)N1CCN(C(=O)Cc2ccccc2)C(c2ccccc2)C1` (stereo unspecified), for which the IC50 on P2X purinoceptor 7 [1] worked out at 380 nM; at P2X purinoceptor 7 [2] it was 88 nM.

On to `COc1ccc(CC(=O)N2CCN(/C(=N/C#N)Nc3ccccc3C)CC2C(C)(C)C)cc1OC` (stereo unspecified), for which the half-inhibitory concentration (IC50) on P2X purinoceptor 7 [1] was found to be 420 nM; on P2X purinoceptor 7 [2], 190 nM.

With `Cc1ccccc1N/C(=N\C#N)N1CCN(C(=O)Cc2cccnc2)C(c2ccccc2)C1` (stereo unspecified), the IC50 at P2X purinoceptor 7 [1] is 390 nM; at P2X purinoceptor 7 [2] it was 40 nM.

Consider `Cc1ccccc1N=C(NC#N)N1CCN(C(=O)Cc2ccncc2)C(c2ccccc2)C1` (stereo unspecified), for which the results for the IC50 at P2X purinoceptor 7 [1] and on P2X purinoceptor 7 [2] were 150 nM and 36 nM, respectively.

On to `COc1ccc(CC(=O)N2CCN(C(=Nc3ccccc3C)NC#N)C(c3ccccc3)C2)cc1OC` (stereo unspecified), for which the IC50 at P2X purinoceptor 7 [1] is 220 nM; on P2X purinoceptor 7 [2] it was 51 nM.

In the case of `Cc1ccccc1N/C(=N\C#N)N1CCN(C(=O)Cc2ccsc2)C(c2ccccc2)C1` (stereo unspecified), the IC50 at P2X purinoceptor 7 [1] amounted to 270 nM; at P2X purinoceptor 7 [2], 71 nM.

`COc1ccc(C(=O)N2CCN(C(=Nc3cccc4ncccc34)NC#N)CC2c2ccccc2)cc1OC` (stereo unspecified): the IC50 came to 30 nM at P2X purinoceptor 7 [1] and 59 nM on P2X purinoceptor 7 [2].

Regarding `COc1ccc(CC(=O)N2CCN(C(=Nc3ccccc3C)NC#N)[C@H](C(C)C)C2)cc1OC`, the IC50 on P2X purinoceptor 7 [1] was determined as 16000 nM; at P2X purinoceptor 7 [2] it was 1300 nM.

With `Cc1ccn(CC(=O)N2CCN(/C(=N/C#N)Nc3ccccc3C)CC2c2ccccc2)n1` (stereo unspecified), the IC50 on P2X purinoceptor 7 [1] worked out at 320 nM; at P2X purinoceptor 7 [2], 40 nM.

Consider `Cc1ccccc1N/C(=N\C#N)N1CCN(C(=O)Cn2nccc2C)C(c2ccccc2)C1` (stereo unspecified), for which the results for the IC50 at P2X purinoceptor 7 [1] and on P2X purinoceptor 7 [2] were 560 nM and 60 nM, respectively.

In the case of `COc1ccc(CC(=O)NC(NC(=NC#N)Nc2ccccc2C)C(C)(C)C)cc1OC` (stereo unspecified), the IC50 was found to be 14 nM on P2X purinoceptor 7 [1] and 120 nM on P2X purinoceptor 7 [2].

For `Cc1ccccc1N/C(=N\C#N)N1CCN(C(=O)Cc2ccoc2)C(c2ccccc2)C1` (stereo unspecified), the IC50 at P2X purinoceptor 7 [1] is 250 nM; on P2X purinoceptor 7 [2], 220 nM.

Turning to `COc1ccc(CC(=O)N2CCN(C(=Nc3ccccc3C)NC#N)CC2c2ccccc2)cc1OC` (stereo in doubt; 7), the IC50 on P2X purinoceptor 7 [1] came to 140 nM; at P2X purinoceptor 7 [2] it was 58 nM.

The record behind these values is ChEMBL document CHEMBL1143222, “Synthesis and in vitro activity of N'-cyano-4-(2-phenylacetyl)-N-o-tolylpiperazine-1-carboximidamide P2X7 antagonists” (Bioorg Med Chem Lett, 2008).
